Measurements: patent US10780076B2, “Inhibition of cancer cell motility” (Northwestern University, priority 2014, dated 2020)

Legend:
[1] = Systemic off-target effects: organ histology and organ function; format: in vivo, mice
Text: FIG. 13. KBU2046 treatment is not associated with systemic off-target effects. […] After 35 days of treatment, the following organs were harvested at necropsy, and stained with H&E (alternative staining methods as indicated): heart, lungs, esophagus, stomach, colon, small intestine, liver (Trichrome staining), kidneys (Trichrome staining), adrenals, bladder, prostate, spleen, pancreas, brain, testes, and bone marrow and peripheral blood (Giemsa staining). Organs were examined for damage using a semi-quantitative histological scoring system (Knodell et al., 1981; herein incorporated by reference in its entirety). […] Changes in the liver observed in control mice were not increased by KBU2046 treatment. […] On day 8 and 14, all critical organs were weighed, and the following parameters measured in blood: cholesterol, triglycerides, alanine aminotransferase (ALT), aspartate aminotransferase (AST), total bilirubin, glucose, phosphorus, total protein, calcium, blood urea nitrogen (BUN), creatinine, albumin, Na, K, Cl, white blood cells (with differential), red blood cells, hemoglobin, platelets.
Orthotopic implantation of human PCa cells and quantification of distant metastasis was performed as described (Pavese et al., 2013; herein incorporated by reference in its entirety). […] Quantification of KBU2046 plasma concentrations was performed by LCMS. […]

[2] = system: human PCa PC3-M cell orthotopic implants; assay: Orthotopic murine model of human PCa metastasis; format: in vivo, mice; conditions: lung metastasis, KBU2046 in chow, dose-dependent
Method: FIGS. 3A-D. KBU2046 inhibits cancer metastasis and prolongs life. (A, B) Inhibition of PCa metastasis. Cohorts of athymic mice bearing human PCa PC3-M cell orthotopic implants (A), or of non-tumor bearing athymic mice (B), were treated with KBU2046 incorporated into chow, and resultant lung metastasis (A) or plasma KBU2046 concentration (B) measured. Values are the mean±SEM. The relationship between dose and metastasis was evaluated by two-sided ANOVA (A). (C) Comprehensive characterization of KBU2046 phannacokinetics. CD1 mice were dosed with 100 mg KBU2046/kg via oral gavage or intravenous injection (iv), and blood collected at the indicated time points. The dotted horizontal line denotes a concentration of 24 nM, which was the concentration of KBU2046 measured in the blood of mice whose metastasis were suppressed by 92% (A, B). […]
Orthotopic implantation of human PCa cells and quantification of distant metastasis was performed as described (Pavese et al., 2013; herein incorporated by reference in its entirety). […] Quantification of KBU2046 plasma concentrations was performed by LCMS. […] Critical organs were examined for structural damage using a semi-quantitative histological scoring system (Knodell et al., 1981; herein incorporated by reference in its entirety), while their function was assessed by comprehensive clinical laboratory testing of blood samples. […]

[3] = system: human bone marrow stem cells; assay: Hematopoietic stem cell 14-day colony formation assay; format: cell-based; conditions: colonies at 14 days
Method: (FIG. 2A) Cell invasion. Human prostate metastatic cells (PC3, PC3-M), and HPV transformed normal (1532NPTX, I542NPTX) and primary cancer (1532CPTX, 1542CPTX) cells, were treated with 10 μM genistein (G), KBU2046 (46) or vehicle (CO), and after 3 days, cell invasion was measured. Values are mean±SEM. (FIG. 2B) Single cell migration. Cell migration was measured after treatment for 3 days with 10 μM KBU2046 or vehicle (control). Values are mean±SEM. *Denotes Student's t test P value </=0.05, compared to controls. […] Values are mean±SEM. (FIG. 2D) Human cord blood hematopoietic stem cell colony formation assay. Values are the mean±SD number of total, CFU-GM, CFU-GEMM or BFU-E colonies at 14 days after treatment with KBU2046. […]
Additional functional measures of toxicity included a NCI-based screen of the NCI 60-cell line panel (Shoemaker, 2006; herein incorporated by reference in its entirety), expression of estrogen-responsive genes by qRT/PCR (Ding et al., 2007; herein incorporated by reference in its entirety), induction of an estrogen-responsive promoter by luciferase assay (Breen et al., 2013; Catherino and Jordan, 1995; herein incorporated by reference in their entireties), and a hematopoietic stem cell 14-day colony formation assay (Bergan et al., 1996; herein incorporated by reference in its entirety). […] The migration of individual cells was assessed by time-lapse video microscopy.

[4] = system: osteonectin expression in PC3 cells; assay: Gene array screen for differentially expressed genes; format: cell-based, human
Method: FIGS. 21A-C. KBU2046 disrupts osteonectin expression. PC3 cells were treated +/− with 10 uM KBU2046×3 d (A), or were transfected with siRNA to osteonectin (siOST) or non-targeting (siCO) (B), and osteonectin/GAPDH expression measured by qRT/PCR. (C) PC3 cells were transfected with siOST, siCO, treated with +/−KBU2046, and cell invasion measured.
Having identified inhibition of Ser^226 phosphorylation as the molecular target of KBU2046 for inhibition of cell motility, experiments were conducted during development of embodiments herein to identify downstream regulators of its action. PC3 cells with KBU2046, and screened for differentially expressed genes using two different SABiosciences (Qiagen) gene array platforms: Human Metastasis Array and Human Extracellular Matrix and Adhesion Molecule Array. […] No other significant effects were identified. Separate experiments confirmed differential expression by gene-specific qRT/PCR (FIG. 21A). […] Clinically, overexpression of osteonectin in primary PCa has been associated with the development of metastasis to bone.

## O=C1c2ccccc2OCC1c1ccc(F)cc1 (racemic) [KBU2046, 4′-fluoroisoflavanone]
[1]; Balb/c athymic mice, 35 days of treatment
  organ damage by histologic examination: No organ damage was observed
[1]; CD1 mice, single iv 15, 75 or 125 mg/kg, day 8 and 14
  organ weights and blood chemistry/hematology parameters: No abnormal alterations in any of these parameters were observed
[2]
  decrease in metastasis: up to 92%
[3]
  toxicity to human bone marrow stem cells: not toxic
[4]
  suppression of osteonectin expression: 2.0 fold
